Reference: patent US12497365B2, “4-pyridinyl formamide compound or derivative thereof, preparation method therefor, herbicidal composition and use thereof” (Qingdao Kingagroot Chemical Compound Co., Ltd., priority 2019, dated 2025)

Columns and labels:
Assay in all cases: Weeding effect in post-emergence stage
Assay type in all cases: in vivo
Settings in all cases: active ingredient 2000 g/ha, 3 weeks after application, fresh weight control rate
Chenopodium album = tested on: Chenopodium album
Method in brief: (§1)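 Pot-grown weeds at the 2-3 leaf stage receive a tower spray of test compound at 2000, 1000, 500, 250 or 125 g/ha, formulated in acetone with Tween 80 and methyl oleate synergist. Fresh weight reduction is rated on an activity scale 3 weeks later.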

Descurainia sophia = tested on: Descurainia sophia
Method in brief: as §1

[1] = tested on: Amaranthus retroflexus L.
Method in brief: as §1

Abutilon theophrasti = tested on: Abutilon theophrasti
Method in brief: as §1

Structure (SMILES) | Weeding effect, activity level (growth control rate), Chenopodium album (Chenopodium album) | Weeding effect, activity level (growth control rate), Descurainia sophia (Descurainia sophia) | Weeding effect, activity level (growth control rate), Amaranthus retroflexus L. [1] | Weeding effect, activity level (growth control rate), Abutilon theophrasti (Abutilon theophrasti)
Cn1nnnc1NC(=O)c1ccnc(-c2ccc(C#N)nc2)c1Cl [Compound 1-134] | 5 (Level 5: growth control rate is above 85%) | 5 (Level 5: growth control rate is above 85%) | 5 (Level 5: growth control rate is above 85%) | 5 (Level 5: growth control rate is above 85%)
Cn1nnnc1NC(=O)c1ccnc(-c2ccc(F)nc2F)c1Cl [Compound 1-135] | 5 (Level 5: growth control rate is above 85%) | 5 (Level 5: growth control rate is above 85%) | 5 (Level 5: growth control rate is above 85%) | 5 (Level 5: growth control rate is above 85%)
Cc1cc(F)ncc1-c1nccc(C(=O)Nc2nnnn2C)c1Cl [Compound 1-136] | 5 (Level 5: growth control rate is above 85%) | 5 (Level 5: growth control rate is above 85%) | 5 (Level 5: growth control rate is above 85%) | 5 (Level 5: growth control rate is above 85%)
Cc1nc(F)ccc1-c1nccc(C(=O)Nc2nnnn2C)c1Cl [Compound 1-137] | 5 (Level 5: growth control rate is above 85%) | 5 (Level 5: growth control rate is above 85%) | 5 (Level 5: growth control rate is above 85%) | 5 (Level 5: growth control rate is above 85%)
Cc1cc(Cl)ncc1-c1nccc(C(=O)Nc2nnnn2C)c1Cl [Compound 1-138] | 5 (Level 5: growth control rate is above 85%) | 5 (Level 5: growth control rate is above 85%) | 5 (Level 5: growth control rate is above 85%) | 5 (Level 5: growth control rate is above 85%)
Cn1nnnc1NC(=O)c1ccnc(-c2ccc(Cl)nc2Cl)c1Cl [Compound 1-139] | 5 (Level 5: growth control rate is above 85%) | 5 (Level 5: growth control rate is above 85%) | 5 (Level 5: growth control rate is above 85%) | 5 (Level 5: growth control rate is above 85%)
Cn1nnnc1NC(=O)c1ccnc(-c2ccc(Br)nc2F)c1Cl [Compound 1-140] | 5 (Level 5: growth control rate is above 85%) | 5 (Level 5: growth control rate is above 85%) | 5 (Level 5: growth control rate is above 85%) | 5 (Level 5: growth control rate is above 85%)
Cn1nnnc1NC(=O)c1ccnc(-c2cccnc2C(F)(F)F)c1Cl [Compound 1-141] | 5 (Level 5: growth control rate is above 85%) | 5 (Level 5: growth control rate is above 85%) | 5 (Level 5: growth control rate is above 85%) | 5 (Level 5: growth control rate is above 85%)
